Reference: PMC7084598, “Design, Synthesis, and Biological Evaluation of Two Series of Novel A-Ring Fused Steroidal Pyrazines as Potential Anticancer Agents” (International Journal of Molecular Sciences, 2020)

Assays:
[1] = tested on: HepG2 (liver hepatocellular carcinoma); experiment: CCK-8 antiproliferative assay, HepG2; type: cell-based; settings: Homo sapiens, 48 h, CCK8, mean of three independent experiments, NA = no activity, read-out: Inhibitory Ratio (Mean% ± SD%) HepG2
Method: (§1) All the thirty-six target derivatives (5a–5f, 10a–10o, and 12a–12o) were screened for antiproliferative activities against three human cancer cell lines (MCF-7, PC-3, and HepG2) and cytotoxicity on a normal human cell (THLE-2) at the concentration of 20 μM by using the CCK8 assay.
(§2) Thirty-six novel steroidal A-ring fused pyrazine hybrids were evaluated by Cell Counting Kit-8 (CCK-8) assays, to evaluate their in vitro antiproliferative activities on three human cancer cell lines and one normal cell line: MCF-7 (breast carcinoma), PC-3 (prostate carcinoma), HepG2 (liver hepatocellular carcinoma), and THLE-2 ([…]), with 5-fluorouracil as the positive control.
(§3) Cells (3 × 10^3 cells per well) seeded into 96-well plates (Costar, Shanghai, China) were incubated with Ham’s F-12K containing various concentrations of steroidal pyrazines (5a–5f, 10a–10o, and 12a–12o) for 48 h at 37 °C and 5% COThen, 10 μL of CCK-8 reagent (Beyotime, Shanghai, China) dissolved in PBS (Phosphate buffered saline) was added per well, and continuously incubated at 37 °C for 1 h. Finally, the absorbance of samples taken from each well was measured on a microplate reader at 450 nm. The antiproliferative activities were expressed as inhibitory activity and IC50 values calculated using GraphPad Software 5.0 (GraphPad Software, San Diego, CA, USA), which were the mean values of three independent tests and are shown in Table 1 and Table 2, respectively. The formula used for cell inhibitory rates was (1 - sample absorption/vehicle absorption) × 100%.

MCF-7 (breast carcinoma) = experiment: CCK-8 antiproliferative assay, MCF-7; type: cell-based; settings: Homo sapiens, MCF7, 48 h, CCK8, mean of three independent experiments, NA = no activity, read-out: Inhibitory Ratio (Mean% ± SD%) MCF-7
Method: as §1, §2, §3

[2] = tested on: THLE-2 (normal human cells); experiment: CCK-8 cytotoxicity on normal cells, THLE-2; type: cell-based; settings: for inhibition at 20 µM: 48 h, CCK8, NA = no activity, read-out: Inhibitory Ratio (Mean% ± SD%) THLE-2; for IC50: CCK-8, 48 h
Method: as §1, §2, §3

[3] = tested on: PC-3 (prostate carcinoma); experiment: CCK-8 antiproliferative assay, PC-3; type: cell-based, human; settings: for inhibition at 20 µM / IC50: Homo sapiens; for inhibition at 20 µM: 48 h, CCK8, mean of three independent experiments, NA = no activity, read-out: Inhibitory Ratio (Mean% ± SD%) PC-3; for IC50: CCK-8, 48 h, triplicate; for SI: Selectivity index = (IC50 of THLE-2)/(IC50 of PC-3): THLE-2 vs PC-3
Method: as §1, §2, §3

Row | SMILES | inhibition at 20 µM [1] [%] | inhibition at 20 µM (MCF-7 (breast carcinoma)) [%] | inhibition at 20 µM [2] [%] | inhibition at 20 µM [3] [%] | IC50 [3] [µM] | SI: Selectivity index = (IC50 of THLE-2)/(IC50 of PC-3) [3] | IC50 [2] [µM] | melting point [°C]
1 | COc1ccc2nc3c(nc2c1)CC1(C)C(=CCC2C1CCC1(C)C(C(C)O)CCC21)C3(C)C (stereo not shown) [Compound 10k] | 29.3 ± 5.38 | 11.2 ± 0.49 | 3.54 ± 2.16 |  |  |  |  | 
2 | CC(O)C1CCC2C3CC=C4C(C)(C)c5nc6ccc(Cl)cc6nc5CC4(C)C3CCC12C (stereo not shown) [Compound 10e] | 25.6 ± 2.51 |  |  | 44.8 ± 3.26 |  |  |  | 
3 | Cc1ccc(NC(=O)c2cnc3c(n2)C(C)(C)C2=CCC4C(CCC5(C)C(C(C)O)CCC45)C2(C)C3)cc1 (stereo not shown) [Compound 12d] | 16.3 ± 3.72 | 25 ± 3.43 | 18.2 ± 6.76 | 22.6 ± 2.25 |  |  |  | 
4 | CC(O)C1CCC2C3CC=C4C(C)(C)c5nc6ccc(Br)cc6nc5CC4(C)C3CCC12C (stereo not shown) [Compound 10g] | 11.7 ± 2.56 |  |  |  |  |  |  | 
5 | CC1(C)C2=CCC3C(CC[C@@]4(C)C3CC[C@@H]4C(=O)O)[C@@]2(C)Cc2nc3ccc(O)cc3nc21 (stereo partly shown) [Compound 5f] | 24.9 ± 2.3 | 18.4 ± 13.1 |  |  |  |  |  | 
6 | CC(O)C1CCC2C3CC=C4C(C)(C)c5nc(C(=O)Nc6ccccc6)cnc5CC4(C)C3CCC12C (stereo not shown) [Compound 12a] | 12.5 ± 12.9 |  |  | 24.2 ± 0.94 |  |  |  | 
7 | CC1(C)C2=CCC3C(CC[C@@]4(C)C3CC[C@@H]4C(=O)O)[C@@]2(C)Cc2nc3ccc(Br)cc3nc21 (stereo partly shown) [Compound 5d] |  | 12.4 ± 0.3 | 2.39 ± 0.65 | 30 to 60 |  |  |  | 
8 | CC1(C)C2=CCC3C(CC[C@@]4(C)C3CC[C@@H]4C(=O)O)[C@@]2(C)Cc2nc3cc(Br)ccc3nc21 (stereo partly shown) [Compound 5c] |  | 6.86 ± 7.46 | 12.5 ± 0.9 | 20.7 ± 12.5 |  |  |  | 
9 | CC(O)C1CCC2C3CC=C4C(C)(C)c5nc6cc(Br)ccc6nc5CC4(C)C3CCC12C (stereo not shown) [Compound 10h] | 13.1 ± 0.68 | 21.2 ± 3.73 | 2.39 ± 0.07 | 21.7 ± 1.27 |  |  |  | 
10 | Cc1ccccc1NC(=O)c1cnc2c(n1)C(C)(C)C1=CCC3C(CCC4(C)C(C(C)O)CCC34)C1(C)C2 (stereo not shown) [Compound 12b] | 15.2 ± 5.61 | 8.12 ± 3.17 | 5.15 ± 1.79 | 20.8 ± 7.04 |  |  |  | 
11 | CC(O)C1CCC2C3CC=C4C(C)(C)c5nc6ccc(O)cc6nc5CC4(C)C3CCC12C (stereo not shown) [Compound 10i] |  | 17.9 ± 6.61 |  | 14.2 ± 0.87 |  |  |  | 
12 | O=c1[nH]cc(F)c(=O)[nH]1 [Compound 5-FU, 5-fluorouracil, reference compound] | 47.7 ± 1.3 | 47.9 ± 1.67 | 51.8 ± 0.69 | 35 ± 1.46 | 22.4 ± 0.41 | 0.58 | 12.9 | 
13 | CC(O)C1CCC2C3CC=C4C(C)(C)c5nc(C(=O)Nc6ccc(Cl)cc6)cnc5CC4(C)C3CCC12C (stereo not shown) [Compound 12j] | 23.1 ± 1.27 | 24.9 ± 4.84 |  | 51.1 ± 1.02 |  |  |  | 
14 | CC(O)C1CCC2C3CC=C4C(C)(C)c5nc(C(=O)Nc6cccc(F)c6)cnc5CC4(C)C3CCC12C (stereo not shown) [Compound 12f] | 12.8 ± 4.26 | 0.8 ± 3.31 |  | 33.2 ± 4.68 |  |  |  | 
15 | COc1cccc(NC(=O)c2cnc3c(n2)C(C)(C)C2=CCC4C(CCC5(C)C(C(C)O)CCC45)C2(C)C3)c1 (stereo not shown) [Compound 12l] | 12 ± 1.67 | 13.8 ± 2.32 |  | 26.9 ± 1.71 |  |  |  | 
16 | CC(O)C1CCC2C3CC=C4C(C)(C)c5nc(C(=O)Nc6cccc(Cl)c6)cnc5CC4(C)C3CCC12C (stereo not shown) [Compound 12i] | 15.9 ± 2.93 | 20.2 ± 0.52 |  | 35.9 ± 2.97 |  |  |  | 
17 | CC(O)C1CCC2C3CC=C4C(C)(C)c5nc6cc([N+](=O)[O-])ccc6nc5CC4(C)C3CCC12C (stereo not shown) [Compound 10n] | 18.7 ± 2.69 | 20 ± 2.56 |  | 16.6 ± 3.72 |  |  |  | 
18 | CC1(C)C2=CCC3C(CC[C@@]4(C)C3CC[C@@H]4C(=O)O)[C@@]2(C)Cc2nccnc21 (stereo partly shown) [Compound 5a] | 17.9 ± 1.16 | 3.09 ± 1.05 |  | 25.1 ± 2.64 |  |  |  | 270 to 292

Row | SMILES | inhibition at 20 µM [1] [%] | inhibition at 20 µM (MCF-7 (breast carcinoma)) [%] | inhibition at 20 µM [2] [%] | inhibition at 20 µM [3] [%] | IC50 [3] [µM] | SI: Selectivity index = (IC50 of THLE-2)/(IC50 of PC-3) [3] | IC50 [2] [µM] | melting point [°C]
19 | CC(O)C1CCC2C3CC=C4C(C)(C)c5nc6cc(F)ccc6nc5CC4(C)C3CCC12C (stereo not shown) [Compound 10d] | 22.4 ± 4.89 | 21.2 ± 9.12 |  | 52.8 ± 0.86 |  |  |  | 
20 | CC(O)C1CCC2C3CC=C4C(C)(C)c5nc(C(=O)Nc6ccccc6Cl)cnc5CC4(C)C3CCC12C (stereo not shown) [Compound 12h] | 21.9 ± 2.05 |  |  | 41.7 ± 4.79 |  |  |  | 
21 | CC(O)C1CCC2C3CC=C4C(C)(C)c5nc6ccc([N+](=O)[O-])cc6nc5CC4(C)C3CCC12C (stereo not shown) [Compound 10m] | 18.2 ± 7.46 | 14.7 ± 0.25 |  | 16 ± 0.57 |  |  |  | 
22 | CC1(C)C2=CCC3C(CC[C@@]4(C)C3CC[C@@H]4C(=O)O)[C@@]2(C)Cc2nc3cc(O)ccc3nc21 (stereo partly shown) [Compound 5e] |  | 6.57 ± 0.09 |  |  |  |  |  | 
23 | CC(O)C1CCC2C3CC=C4C(C)(C)c5nc6cc(Cl)ccc6nc5CC4(C)C3CCC12C (stereo not shown) [Compound 10f] | 32.6 ± 0.41 | 23.9 ± 1.87 |  | 59.6 ± 1.29 |  |  |  | 
24 | CC(O)C1CCC2C3CC=C4C(C)(C)c5nccnc5CC4(C)C3CCC12C (stereo not shown) [Compound 10a] | 6.2 ± 5.25 | 4.99 ± 3.09 |  |  |  |  |  | 150 to 152
25 | CC(O)C1CCC2C3CC=C4C(C)(C)c5nc(C(=O)Nc6ccccc6F)cnc5CC4(C)C3CCC12C (stereo not shown) [Compound 12e] | 17.6 ± 3.19 | 3.28 ± 1.9 | 14 ± 1.47 | 47 ± 3.47 |  |  |  | 
26 | COc1ccc(NC(=O)c2cnc3c(n2)C(C)(C)C2=CCC4C(CCC5(C)C(C(C)O)CCC45)C2(C)C3)cc1 (stereo not shown) [Compound 12m] | 20.3 ± 3.6 | 20 ± 2.33 | 5.68 ± 1.9 | 30 to 60 |  |  |  | 
27 | Cc1cccc(NC(=O)c2cnc3c(n2)C(C)(C)C2=CCC4C(CCC5(C)C(C(C)O)CCC45)C2(C)C3)c1 (stereo not shown) [Compound 12c] | 7.02 ± 3.1 | 3.57 ± 1.69 |  | 19.9 ± 0.43 |  |  |  | 
28 | CC(O)C1CCC2C3CC=C4C(C)(C)c5nc(C(=O)Nc6ccc(F)cc6)cnc5CC4(C)C3CCC12C (stereo not shown) [Compound 12g] |  | 33.4 ± 5.35 | 17.6 ± 1.39 | > 60 | 6.88 ± 0.04 | 2.14 | 14.7 | 
29 | COc1ccccc1NC(=O)c1cnc2c(n1)C(C)(C)C1=CCC3C(CCC4(C)C(C(C)O)CCC34)C1(C)C2 (stereo not shown) [Compound 12k] | 12.9 ± 0.43 | 17.7 ± 1.01 | 4.71 ± 1.25 | 32.9 ± 1.19 |  |  |  | 
30 | CC(O)C1CCC2C3CC=C4C(C)(C)c5nc6ccccc6nc5CC4(C)C3CCC12C (stereo not shown) [Compound 10b] | 7.24 ± 5.83 | 9.95 ± 0.55 | 4.35 ± 2.27 | 12.5 ± 12.9 |  |  |  | 
31 | COc1ccc2nc3c(nc2c1)C(C)(C)C1=CCC2C(CCC4(C)C(C(C)O)CCC24)C1(C)C3 (stereo not shown) [Compound 10l] | 33.3 ± 1.13 | 41.6 ± 1.28 | 22.2 ± 2.72 | 30 to 60 |  |  |  | 
32 | CC(O)C1CCC2C3CC=C4C(C)(C)c5nc6cc(O)ccc6nc5CC4(C)C3CCC12C (stereo not shown) [Compound 10j] |  | 18.6 ± 0.92 |  | 30 to 60 |  |  |  | 
33 | CC(O)C1CCC2C3CC=C4C(C)(C)c5nc6ccc(F)cc6nc5CC4(C)C3CCC12C (stereo not shown) [Compound 10c] |  | 3.85 ± 1.97 |  | 24.9 ± 2.12 |  |  |  | 
34 | CC1(C)C2=CCC3C(CC[C@@]4(C)C3CC[C@@H]4C(=O)O)[C@@]2(C)Cc2nc3ccccc3nc21 (stereo partly shown) [Compound 5b] | 7.24 ± 5.83 |  | 12.6 ± 1.22 | 12.5 ± 12.9 |  |  |  | 
35 | CC(O)C1CCC2C3CC=C4C(C)(C)c5nc(C(=O)NC6CCCCC6)cnc5CC4(C)C3CCC12C (stereo not shown) [Compound 12o] | 24.1 ± 2.34 | 15.1 ± 1.25 |  |  |  |  |  | 
